The source of these data is patent US5066585A, “Method of inhibiting fungus using novel antifungal compounds” (priority 1990, dated 1991).

A word on the MIC: it is the lowest concentration found to suppress growth.

In data set [1] the test system is murine tumors. To be noted: more active than adriamycin; cited from earlier work.
A short description of data set [2]: Solubility. The class given is physicochemical.
Data set [3] relates to Candida albicans, Aspergillus fumigatus, and Cladosporium spp. fungi. In words: TLC bioassay for the detection of the biological activity. The class given is cell-based. As to conditions: bands at Rf 0.48 and 0.72, CHCl3-MeOH 16:1. How it is done:
The crude extract obtained from the mycelium was spotted on a TLC plate (5×20, […]) and developed (CHCl3 -MeOH, 16:1 v/v). The plate was then marked under UV and visible light for individual spots or regions. The spores of the agar slant culture of the test organism was suspended in 10 ml of sterile physiological saline. The growth medium containing agar was then shaken well with 50 ul of the above suspension (35-40° C.) and poured over the developed TLC plate uniformly and allowed to set. The plates were then placed in a moist chamber and incubated at 26° C. for 24 to 72 hours and the zone of inhibition was recorded for the respective spots of the plate. The test organisms were Candida albicans, Aspergillus fumigatus, and Cladosporium spp. fungi and the growth medium was potato dextrose agar (PDA, 39 g/l).

In data set [4] the test system is Pseudomonas aeruginosa. The data set is described as follows: MIC against Pseudomonas aeruginosa. The class given is cell-based. To be noted: bacterial strain, 100,000 CFU. How it is done:
(§1) Known amounts of the purified substance were dissolved in DMSO and serial dilutions prepared in the same solvent. A 20 ul volume of each dilution was placed on the surface of Emmon's agar in petri-dishes seeded with various test strains of pathogenic and saprophytic fungi. The antibacterial activity was monitored using Muller-Hilton agar. The minimum inhibitory concentration (MIC) was determined by incorporating known amount of the DMSO dissolved purified substance into Emmon's liquid medium (same as stated earlier but devoid of agar) contained in test tubes. The tubes were inoculated with ca 2×10^3 CFU of the test organisms. The inoculated tubes were incubated at 26° C. and the results recorded after two to 5 days' depending upon the growth pattern of the test organisms (certain fungi grow faster than others). Tubes inoculated in an identical manner but devoid of the active substance served as controls.
(§2) Minimum inhibitory concentration of Spartanamycin-B against certain bacteria and fungi. (The substance was dissolved in DMSO, 20 ul of the solution was mixed with two ml of liquid Emmons medium containing ca 10,000 Colony forming Units of fungal test strains or 100,000 CFU's of bacterial test strains).

Data set [5] concerns C. neoformans serotype-D. In words: MIC against C. neoformans serotype-D, broth dilution. The data set is classed as cell-based. To be noted: ca 10,000 CFU, liquid Emmons medium. How it is done:
as §1, §2
(Broth dilution looks for growth in wells or tubes with falling amounts of substance.)

The subject of data set [6] is C. neoformans serotype-C. The data set is described as follows: MIC against C. neoformans serotype-C, broth dilution. As to conditions: ca 10,000 CFU, liquid Emmons medium. The data set is classed as cell-based. How it is done: as §1, §2
The test system of data set [7] is Penicillium species. The data set is described as follows: MIC against Penicillium species, broth dilution. The data set is classed as cell-based. As to conditions: fungus, ca 10,000 CFU, liquid Emmons medium, DMSO solution. How it is done: as §1, §2
The test system of data set [8] is Staphylococcus aureus ATCC 29213. In words: MIC against Staphylococcus aureus ATCC 29213. The data set is classed as cell-based. To be noted: bacterial strain, 100,000 CFU. How it is done:
as §1, §2

The test system of data set [9] is C. neoformans-G-3. The data set is described as follows: MIC against C. neoformans-G-3, broth dilution. The data set is classed as cell-based. As to conditions: G = nonencapsulated, drypasty, highly virulent strain, ca 10,000 CFU. How it is done:
as §1, §2

Data set [10] relates to Cryptococcus neoformans-N-2. The data set is described as follows: MIC against Cryptococcus neoformans-N-2, broth dilution. The class given is cell-based. To be noted: N = encapsulated, mucoid strain with neurotropic tendencies, ca 10,000 CFU. How it is done:
as §1, §2

For data set [11], the system named is A. niger. The data set is described as follows: MIC against A. niger, broth dilution. The class given is cell-based. As to conditions: fungus, ca 10,000 CFU, liquid Emmons medium, DMSO solution. The method, then: as §1, §2
The subject of data set [12] is C. neoformans-N-3. The data set is described as follows: MIC against C. neoformans-N-3, broth dilution. The class given is cell-based. To be noted: N = encapsulated, mucoid strain with neurotropic tendencies, ca 10,000 CFU. The method, then:
as §1, §2

In data set [13] the test system is Rhodotorula rubra. The data set is described as follows: MIC against Rhodotorula rubra, broth dilution. The class given is cell-based. As to conditions: fungus, ca 10,000 CFU, liquid Emmons medium. The method, then: as §1, §2
The test system of data set [14] is Cladosporium species. In words: MIC against Cladosporium species, broth dilution. The class given is cell-based. To be noted: fungus, ca 10,000 CFU, liquid Emmons medium, DMSO solution. How it is done:
as §1, §2

Data set [15] relates to S. aureus (multiple drug resistant). In words: MIC against S. aureus (multiple drug resistant). The data set is classed as cell-based. To be noted: bacterial strain, 100,000 CFU. How it is done: as §1, §2
Data set [16] deals with Escherichia coli. In words: MIC against Escherichia coli. As to conditions: bacterial strain, 100,000 CFU. The data set is classed as cell-based. The method, then:
as §1, §2

Data set [17] has as its system A. flavus. The data set is described as follows: MIC against A. flavus, broth dilution. The data set is classed as cell-based. To be noted: fungus, ca 10,000 CFU, liquid Emmons medium, DMSO solution. How it is done: as §1, §2
In data set [18] the test system is Aspergillus fumigatus. In words: MIC against Aspergillus fumigatus, broth dilution. The data set is classed as cell-based. As to conditions: fungus, ca 10,000 CFU, liquid Emmons medium, DMSO solution. How it is done: as §1, §2
The subject of data set [19] is Citrobacter species. In words: MIC against Citrobacter species. To be noted: bacterial strain, 100,000 CFU. The class given is cell-based. How it is done: as §1, §2
Data set [20] deals with Candida albicans. The data set is described as follows: MIC against Candida albicans, broth dilution. The class given is cell-based. As to conditions: fungus, ca 10,000 CFU, liquid Emmons medium, DMSO solution. The method, then: as §1, §2
Data set [21] has as its system C. quilliermondii. The data set is described as follows: MIC against C. quilliermondii, broth dilution. The data set is classed as cell-based. As to conditions: fungus, ca 10,000 CFU, liquid Emmons medium, DMSO solution. How it is done:
as §1, §2

Data set [22] concerns S. aureus ATCC 25923. In words: MIC against S. aureus ATCC 25923. The data set is classed as cell-based. To be noted: bacterial strain, 100,000 CFU. How it is done: as §1, §2
Data set [23] concerns Plebsiella pneumoniae. The data set is described as follows: MIC against Plebsiella pneumoniae. The class given is cell-based. To be noted: bacterial strain, 100,000 CFU. How it is done:
as §1, §2

The test system of data set [24] is R. glutinis. In words: MIC against R. glutinis, broth dilution. The data set is classed as cell-based. To be noted: fungus, ca 10,000 CFU, liquid Emmons medium. How it is done: as §1, §2
Data set [25] in a line: stability on standing in 2N HCl. To be noted: upon standing in 2N HCl. The data set is classed as physicochemical.
Data set [26] has as its system fungi. To be noted: comparison compounds from Streptomyces; cited from earlier work.
The conditions of data set [27]: comparison compounds; cited from earlier work.
The mark [28] stands for this setting: hexane, cyclohexane, water and 2N HCl.

In brackets after ≈: the same amount, converted by molar mass. Read-outs that look alike come from different tables or passages of the source.

On to `CCN[C@H]1CO[C@@H](O[C@H]2[C@H](O[C@H]3C#C/C=C\C#C[C@]4(O)CC(=O)C(NC(=O)OC)=C3/C4=C\CSSSC)O[C@H](C)[C@@H](NO[C@H]3C[C@H](O)[C@H](SC(=O)c4c(C)c(I)c(O[C@@H]5O[C@@H](C)[C@H](O)[C@@H](OC)[C@H]5O)c(OC)c4OC)[C@@H](C)O3)[C@@H]2O)C[C@@H]1OC` [Calicheamicin], for which the “activity relative to adriamycin against murine tumors” value in data set [1] was “approximately 1000 fold”.

In the case of `CCC1(O)CC(OC2CC(N(C)C)C(OC3CC4OC5CC(=O)C(C)OC5OC4C(C)O3)C(C)O2)c2c(cc3c(c2O)C(=O)c2c(O)ccc(O)c2C3=O)C1C(=O)OC` (stereo not shown) [Spartanamicin A], the Solubility entry was “Sparingly soluble” in data set [2] (1-butanol, ethanol, methanol); “Soluble” in data set [2] (chloroform, carbon tetrachloride, toluene, ethyl acetate, DMF, DMSO, acetonitrile, acetone and glacial acetic acid); “Insoluble” in [2] (setting [28]). The “solubility in methanol and ethanol” value in data set [2] is recorded as “not soluble”. In addition, in [3], the “biological activity of TLC band” value is reported as “biologically active”.

As to `CC[C@@]1(O)C[C@H](O[C@H]2C[C@H](N(C)C)[C@H](O[C@H]3C[C@H](O)[C@H](O[C@H]4CCC(=O)[C@H](C)O4)[C@H](C)O3)[C@H](C)O2)c2c(cc3c(c2O)C(=O)c2c(O)ccc(O)c2C3=O)[C@H]1C(=O)OC` [Spartanamicin B], the minimal inhibitory concentration (MIC) worked out at 100 µg/mL (≈ 121 µM) in data set [4]; 0.8 µg/mL (≈ 0.966 µM) in data set [5]; 0.8 µg/mL (≈ 0.966 µM) in data set [6]; 0.2 µg/mL (≈ 0.242 µM) in data set [7]; 0.8 µg/mL (≈ 0.966 µM) in [8]; 1.0 µg/mL (≈ 1.21 µM) in data set [9]. For the same compound, the MIC was 0.8 µg/mL (≈ 0.966 µM) in data set [10]; 0.6 µg/mL (≈ 0.725 µM) in [11]; 0.6 µg/mL (≈ 0.725 µM) in [12]; 0.8 µg/mL (≈ 0.966 µM) in data set [13]; 0.4 µg/mL (≈ 0.483 µM) in data set [14]; “not active” in data set [15]. Further, the minimum inhibitory concentration (MIC) result in data set [16] was “not active”; in data set [17], 0.6 µg/mL (≈ 0.725 µM); in data set [18] it was 0.4 µg/mL (≈ 0.483 µM); in data set [19], “not active”; in [20], 0.2 µg/mL (≈ 0.242 µM); in [21] it was 0.8 µg/mL (≈ 0.966 µM). Besides, the MIC in data set [22] was 0.8 µg/mL (≈ 0.966 µM); in [23], 100 µg/mL (≈ 121 µM); in data set [24], 0.4 µg/mL (≈ 0.483 µM). For the same compound, the Solubility result in data set [2] (1-butanol, ethanol, methanol, acetonitrile) was “Sparingly soluble”; in data set [2] (chloroform, carbon tetrachloride, toluene, ethyl acetate, DMF, DMSO, acetone and glacial acetic acid), “Soluble”; in data set [2] (setting [28]) it was “Insoluble”. Further, in [2], the “solubility in methanol and ethanol” value is reported as “not soluble”. Further, the “biological activity of TLC band” value in data set [3] is listed as “biologically active”. For the same compound, the “stability in 2N HCl” value in data set [25] is “hydrolyses”.

For the compound `CCC1(O)CC(OC2CC(N(C)C)C(OC3CC(O)C(OC4CCC(=O)C(C)O4)C(C)O3)C(C)O2)c2c(cc3c(c2O)C(=O)c2c(O)ccc(O)c2C3=O)C1C(=O)OC` (stereo not shown) [cinerubin A], the antifungal properties entry in data set [26] is “not significantly antifungal”. In addition, the “solubility in methanol and ethanol” value in data set [27] is recorded as “soluble”.

Regarding `CCC1(O)CC(OC2CC(N(C)C)C(OC3CC4OC5CC(=O)C(C)OC5OC4C(C)O3)C(C)O2)c2c(cc3c(c2O)C(=O)c2c(O)ccc(O)c2C3=O)C1C(=O)OC` (stereo not shown) [cinerubin B], the antifungal properties result in data set [26] was “not significantly antifungal”. Moreover, in [27], the “solubility in methanol and ethanol” value is on record as “soluble”.
